Measured values: patent US7521182B2, “Selection system containing non-antibiotic resistance selection marker” (priority 2003, dated 2009)

Experiments:
Assay type in all cases: cell-based, E. coli
AG1ΔaraD = assay: Testing of arabinose sensitivity (M9 medium with glycerol, overnight culture, OD600); settings: for AG1ΔaraD OD600: overnight at 37° C.
Experimental: (§1) The arabinose sensitivity was tested on the produced AG1ΔaraD and JM109ΔaraD strains. One colony of AG1ΔaraD and one colony of JM109ΔaraD were each inoculated into 2 ml LB. The cultures were grown for 8 hours, diluted 1:100 into M9 medium containing 0.2% glycerol, 25 μg/ml kanamycin, 0.01% thiamine (0.05% proline for JM109ΔaraD) and different concentrations of L-arabinose were added in the growth medium. The cultures were grown overnight at 37° C. in shaker incubator and OD600 was measured (Table 1).

JM109ΔaraD = assay: as above; settings: for JM109ΔaraD OD600: overnight at 37° C.
Experimental: as §1

[1] = system: AG1ΔaraD, DH5alphaT1 ΔaraD and JM109ΔaraD; assay: Arabinose sensitivity at lower concentrations of L-arabinose (FIG. 18)
Experimental: as §1
The arabinose sensitivity was further tested on AG1ΔaraD, DH5alphaT1 ΔaraD and JM109ΔaraD as above but using lower concentrations of L-arabinose.

[2] = system: strains with intact araD gene; assay: L-arabinose sensitivity in M9 and yeast extract medium (FIG. 19); settings: 0,2% and 2% arabinose, overnight at 37° C.
Experimental: (§2) Additionally the L-arabinose sensitivity was tested in M9 and yeast extract medium with different glucose and arabinose concentrations (0.2% glucose, 0.2% arabinose, 2% arabinose). The cultures were incubated at 37° C. in a shaker incubator overnight. Then the OD600 was measured to quantitate the cell density.

ΔaraD strains = assay: as above; settings: 0,2% and 2% arabinose, overnight at 37° C.
Experimental: as §2

AG1 ΔaraD = assay: Testing of arabinose sensitivity (M9 medium with 0.5% yeast extract, OD600)
Experimental: (§3) The arabinose sensitivity was tested on the E. coli DH5alphaT1 ΔaraDΔulaFΔsgbE and AG1ΔaraDΔulaFΔsgbE strains produced and compared to those of E. coli DH5alphaT1ΔaraD and AG1ΔaraD strains. One colony of each strain was inoculated into 2 ml of M9 medium containing 0.5% yeast extract, 25 μg/ml of kanamycin, 0.2% glucose only or 0.2% or 2% L-arabinose, respectively.

AG1ΔaraD ΔulaFΔsgbE = assay: as above
Experimental: as §3

DH5alphaT1 ΔaraD = assay: as above
Experimental: as §3

[3] = system: DH5alphaT1 ΔaraDΔulaF ΔsgbE; assay: as above
Experimental: as §3

[4] = system: host deficient of the araD gene; assay: Amount of arabinose in the growth medium for selection
Excerpt: Any growth medium suitable for culturing E. coli cells can be used. For commercial production the growth medium will naturally be optimized in terms of the yield. Examples of suitable growth media are commercially available growth media, such as M9 and LB (available from several manufacturers, such as Fermentas, Lithuania). The amount of arabinose added in the growth medium is not critical but naturally arabinose should be present in an amount that is sufficient for the total culturing period. As low amount as 0.1% has been found sufficient for the selection. Typically arabinose is added to the medium in an amount of about 0.1% to about 2.0%, preferably in an amount of about 0.2% to about 1,0%, most preferably 0.2% to about 0.5%. However the effect of L-arabinose is observed at concentrations as low as 0.01% and L-arabinose can be added up to 5% in the growth medium. In a special embodiment, where L-arabinose is used both as a selecting agent and as a limited carbon source, 0.2% of L-arabinose is a suitable amount to be added into the growth medium.

O=C[C@H](O)[C@@H](O)[C@@H](O)CO [L-arabinose]
AG1ΔaraD OD600 (AG1ΔaraD; 0.1% L-arabinose): 0.03
AG1ΔaraD OD600 (AG1ΔaraD; 0.2% L-arabinose): 0.030
AG1ΔaraD OD600 (AG1ΔaraD; 0.5% L-arabinose): 0.030
AG1ΔaraD OD600 (AG1ΔaraD; 1% L-arabinose): 0.024
AG1ΔaraD OD600 (AG1ΔaraD; 2% L-arabinose): 0.017
amount of L-arabinose enough to inhibit the growth (AG1ΔaraD; Table 1): 0.1%
JM109ΔaraD OD600 (JM109ΔaraD; 0.1% L-arabinose): 0.03
JM109ΔaraD OD600 (JM109ΔaraD; 0.2% L-arabinose): 0.026
JM109ΔaraD OD600 (JM109ΔaraD; 0.5% L-arabinose): 0.020
JM109ΔaraD OD600 (JM109ΔaraD; 1% L-arabinose): 0.025
JM109ΔaraD OD600 (JM109ΔaraD; 2% L-arabinose): 0.021
amount of L-arabinose enough to inhibit the growth (JM109ΔaraD; Table 1): 0.1%
amount of L-arabinose enough to inhibit the growth [1]: 0.0005%
effect on growth of strains with intact araD gene [2]: not inhibited
effect on growth of the ΔaraD strains (ΔaraD strains): inhibited the growth
OD600 Glc + 0.2% L-arabinose (AG1 ΔaraD; 0.2% L-arabinose): 0.82
OD600 Glc + 2% L-arabinose (AG1 ΔaraD; 2% L-arabinose): 0.26
OD600 Glc + 0.2% L-arabinose (AG1ΔaraD ΔulaFΔsgbE; 0.2% L-arabinose): 0.82
OD600 Glc + 2% L-arabinose (AG1ΔaraD ΔulaFΔsgbE; 2% L-arabinose): 0.35
OD600 Glc + 0.2% L-arabinose (DH5alphaT1 ΔaraD; 0.2% L-arabinose): 0.95
OD600 Glc + 2% L-arabinose (DH5alphaT1 ΔaraD; 2% L-arabinose): 0.35
OD600 Glc + 0.2% L-arabinose ([3]; 0.2% L-arabinose): 0.75
OD600 Glc + 2% L-arabinose ([3]; 2% L-arabinose): 0.28
amount of arabinose found sufficient for the selection [4]: 0.1%
concentration at which the effect of L-arabinose is observed [4]: 0.01%
